Source: patent publication US8673904B2, “Epoxide inhibitors of cysteine proteases” (The Board of Trustees of the Leland Stanford Junior …, priority 2006, dated 2014)

How the values were obtained:
CatB = molecular target: T1, CatB (Rattus norvegicus, UniProt P00787); assay: IC50 by competition with radiolabeled general cathepsin probe DCG-04 in rat liver lysate; format: biochemical; details: 1 mg/ml rat liver lysate, inhibitor 20 minutes, then DCG-04 1 hour
T1 construct: from tissue; host or cells: rat liver lysate / homogenate
Experimental: (§1) Also included in the table for comparison are known compounds JPMOEt and JPMOH (also known as JPM-565). See Meara and Rich, J. Med. Chem. 39:3357-3366, 1996; Bogyo et al, Chem. Biol. 7:27-38, 2000; and Joyce et al., Cancer Cell 5:443-453, 2004. The table also lists cathepsin targets and measured IC50 values for specific compounds. To determine these values, 1 mg/ml of rat liver lysate was incubated with a series of concentrations of the inhibitor for 20 minutes. Then, 1 ul of a radiolabled general cathepsin probe, DCG-04, was added to the solutions and incubated for 1 hour. After fixing and drying the gel, the residual enzyme activity was measured using ImageJ software. The measurements were then transferred to GraphPad Prism 4 to calculate the IC50 values.

CatC = molecular target: T2, CatC (Rattus norvegicus, UniProt P80067); assay: as above; format: biochemical; details: 1 mg/ml rat liver lysate, inhibitor 20 minutes, then DCG-04 1 hour
T2 construct: from tissue; host or cells: rat liver lysate
T2 sequence (P80067 25-462): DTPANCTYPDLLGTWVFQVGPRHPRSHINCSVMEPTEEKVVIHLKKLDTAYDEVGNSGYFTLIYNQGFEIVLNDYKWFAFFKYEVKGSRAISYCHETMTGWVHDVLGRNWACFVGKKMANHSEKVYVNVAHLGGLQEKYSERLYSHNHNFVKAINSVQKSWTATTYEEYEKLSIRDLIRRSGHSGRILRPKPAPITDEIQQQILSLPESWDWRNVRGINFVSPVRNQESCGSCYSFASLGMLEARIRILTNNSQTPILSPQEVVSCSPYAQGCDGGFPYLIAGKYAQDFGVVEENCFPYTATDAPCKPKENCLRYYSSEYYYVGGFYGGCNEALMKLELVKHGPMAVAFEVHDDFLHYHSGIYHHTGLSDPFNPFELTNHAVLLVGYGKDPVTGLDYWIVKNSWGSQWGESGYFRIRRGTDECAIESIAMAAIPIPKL
Experimental: as §1

CatH = molecular target: T3, CatH (Rattus norvegicus, UniProt P00786); assay: as above; format: biochemical; details: 1 mg/ml rat liver lysate, inhibitor 20 minutes, then DCG-04 1 hour
T3 construct: from tissue; host or cells: rat liver lysate
T3 sequence (P00786 96-333): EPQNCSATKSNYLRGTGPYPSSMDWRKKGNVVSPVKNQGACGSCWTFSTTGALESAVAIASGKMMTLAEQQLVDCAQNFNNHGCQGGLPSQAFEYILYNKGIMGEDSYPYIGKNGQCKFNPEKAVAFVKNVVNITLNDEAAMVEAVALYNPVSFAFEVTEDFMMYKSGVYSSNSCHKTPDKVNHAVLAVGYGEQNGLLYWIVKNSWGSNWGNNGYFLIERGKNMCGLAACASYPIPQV
Experimental: as §1

CatZ (Cathepsin Z) = molecular target: T4, CatZ (Cathepsin Z) (Rattus norvegicus, UniProt Q9R1T3); assay: as above; format: biochemical; details: 1 mg/ml rat liver lysate, inhibitor 20 minutes, then DCG-04 1 hour
T4 construct: from tissue; host or cells: rat liver lysate
Experimental: as §1

cathepsin targets = assay: Cathepsin targets of the compounds (Table 4); format: biochemical, rat; details: cathepsin target(s) inhibited; General = all cathepsins
Experimental: as §1

cathepsin B = molecular target: T5, cathepsin B (Rattus norvegicus, UniProt P00787); assay: Competition in rat liver homogenates, 125I-labeled JPM-OEt labeling; format: biochemical; details: FIG. 2, rat liver homogenates
T5 construct: from tissue; host or cells: rat liver lysate / homogenate
Experimental: (§2) The library compounds all contained a tyrosine residue at the R3 position. They contained either a leucine residue (top and middle panels) or a 4-methylphenylalanine residue (bottom panel) at the A2 position. The amine at R1 is indicated above each panel, with numbering as defined in Table 1. Samples were analyzed by SDS-PAGE followed by autoradiography. Controls (C) are shown where DMSO was added in place of the inhibitor. The parent compounds JPM-OEt (Et) and JPM-565 (OH) are also included as positive controls. Note the loss of reactivity for all (2R,3R) compounds and the change in specificity of JPM analogs in which the (2R,3R) (middle panel—OH and Et) is used in place of the (2S,3S) (top panel—OH and Et) epoxides.
(§3) Joyce et al., Cancer Cell 5:443-453, 2004.
(§4) FIGS. 3 and 4 show additional competition assays with other compounds of the invention at various concentrations. The compounds were added to total rat liver extracts at the indicated concentrations, as described above, and the mixtures were subsequently treated with ^125I-labeled JPM-OEt to label proteins with residual activity. The in vivo pharmacokinetic properties, potency, and selectivity of some of these compounds are further described in Sadaghiani et al., Chem. Biol. 14:499-511, 2007, which is incorporated herein by reference in its entirety.

other cathepsin targets = assay: Competition/profiling in total rat liver extracts, 125I-labeled JPM-OEt labeling; format: biochemical; details: FIG. 2, at concentrations as high as 50 micromolar
Experimental: as §2, §3, §4

RIP-Tag cancer model = details: Joyce et al., Cancer Cell 5:443-453, 2004; cited from earlier work

T4 sequence (Q9R1T3 64-306): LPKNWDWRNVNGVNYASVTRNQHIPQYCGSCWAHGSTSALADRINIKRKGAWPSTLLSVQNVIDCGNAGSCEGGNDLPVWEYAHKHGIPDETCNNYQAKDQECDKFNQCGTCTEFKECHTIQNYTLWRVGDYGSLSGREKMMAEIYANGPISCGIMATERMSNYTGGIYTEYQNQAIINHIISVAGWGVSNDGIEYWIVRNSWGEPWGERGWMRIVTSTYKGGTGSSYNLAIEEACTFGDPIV
T1 sequence (P00787 80-333): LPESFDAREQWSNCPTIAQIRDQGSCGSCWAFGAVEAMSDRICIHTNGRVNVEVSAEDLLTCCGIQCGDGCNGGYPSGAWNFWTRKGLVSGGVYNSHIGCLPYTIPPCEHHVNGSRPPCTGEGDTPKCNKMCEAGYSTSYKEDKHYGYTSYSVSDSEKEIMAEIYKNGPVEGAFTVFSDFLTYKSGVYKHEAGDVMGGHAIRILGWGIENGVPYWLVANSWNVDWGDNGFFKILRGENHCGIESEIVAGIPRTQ
T5 sequence (P00787 80-333): as above

| Compound | IC50 (CatB) [µM] | IC50 (CatC) [µM] | IC50 (CatH) [µM] | IC50 (CatZ (Cathepsin Z)) [µM] | Target (cathepsin targets) | potency for cathepsin B compared to parent compound JPM-565 (cathepsin B) | activity against other cathepsin targets (other cathepsin targets) | efficacy in the RIP-Tag cancer model (RIP-Tag cancer model) |
| --- | --- | --- | --- | --- | --- | --- | --- | --- |
| CC(C)C[C@H](NC(=O)[C@H]1O[C@@H]1C(=O)NCCc1ccc(O)cc1)C(=O)NCCc1ccccn1 [Compound 63] | 0.31 | > 10 | > 10 | > 10 | Cat B & Z |  |  |  |
| CC(C)C[C@H](NC(=O)[C@H]1O[C@@H]1C(=O)NCCc1ccc(O)cc1)C(=O)NCc1cccc2ccccc12 [Compound 66] | 0.32 | 5.69 | 6.2 | 0.8 | General |  |  |  |
| CCOC(=O)[C@H]1O[C@@H]1C(=O)N[C@@H](CC(C)C)C(=O)NCCc1ccc(O)cc1 [JPMOEt, reference compound] | 0.04 | 8.9 | 4.65 | 0.2 | General |  |  |  |
| CCC[C@H](NC(=O)C1O[C@H]1C(=O)NCC(=O)O)C(=O)N[C@@H](Cc1ccc(O)cc1)C(N)=O (some centres unmarked) [Compound 78] | 0.28 | > 10 | > 10 | 1 | Cat B |  |  |  |
| CC(C)C[C@H](NC(=O)C1OC1C(=O)NCCc1ccc(O)cc1)C(=O)N[C@@H](Cc1ccc(O)cc1)C(N)=O (some centres unmarked) [Compound 25] | 0.02 | 11 | 21 | > 10 | Cat B |  |  |  |
| Cc1ccc(C[C@H](NC(=O)C2O[C@H]2C(=O)NCC(=O)O)C(=O)N[C@@H](Cc2ccc(O)cc2)C(N)=O)cc1 (some centres unmarked) [Compound 80] | > 10 | > 10 | > 10 | 0.8 | Cat B & Z |  |  |  |
| CC(C)C[C@H](NC(=O)C1OC1C(=O)NCCCO)C(=O)N[C@@H](Cc1ccc(O)cc1)C(N)=O (some centres unmarked) [Compound 31] | 0.01 | 11 | 5.45 | 1.1 | Cat B |  |  |  |
| CC(C)C[C@H](NC(=O)C1O[C@H]1C(=O)NCCCO)C(=O)N[C@@H](Cc1ccc(O)cc1)C(N)=O (some centres unmarked) [Compound 52] | 0.05 | > 50 | > 50 | 1.8 | Cat B | retain similar potency for cathepsin B compared to parent compound JPM-565 | little or no activity against other cathepsin targets |  |
| NC(=O)[C@H](Cc1ccc(O)cc1)NC(=O)[C@H](CC1CCCCC1)NC(=O)C1OC1C(=O)O (some centres unmarked) [Compound 74] | 1.95 | > 25 | > 25 | 0.3 | Cat B & Z |  |  |  |
| CCC[C@H](NC(=O)C1O[C@@H]1C(=O)O)C(=O)N[C@@H](Cc1ccc(O)cc1)C(N)=O (some centres unmarked) [Compound 77] | 0.03 | 0.45 | 0.74 | 0.1 | General |  |  |  |
| CC(C)C[C@H](NC(=O)C1OC1C(=O)NCCc1ccc(O)cc1)C(=O)N[C@@H](Cc1ccc(O)cc1)C(N)=O (single isomer, unassigned) [Compound 46] | 0.01 | > 50 | > 50 | > 10 | Cat B | retain similar potency for cathepsin B compared to parent compound JPM-565 | little or no activity against other cathepsin targets |  |
| CC(C)C[C@H](NC(=O)[C@H]1O[C@@H]1C(=O)O)C(=O)NCCc1ccc(O)cc1 [JPMOH, reference compound] | 0.4 | 1 | 0.58 | 0.1 | General |  |  | shown to have efficacy in the RIP-Tag cancer model |
| Cc1ccc(C[C@H](NC(=O)[C@H]2OC2C(=O)NCC(=O)O)C(=O)N[C@@H](Cc2ccc(O)cc2)C(N)=O)cc1 (some centres unmarked) [Compound 16] |  | > 10 | > 10 | 0.1 | Cat Z^1 |  |  |  |
| CCC[C@H](NC(=O)C1O[C@H]1C(=O)O)C(=O)N[C@@H](Cc1ccc(O)cc1)C(N)=O (some centres unmarked) [Compound 75] | 0.27 | > 25 | > 25 | 0.2 | Cat B & Z |  |  |  |
| CCC[C@H](NC(=O)C1O[C@@H]1C(=O)NCC(=O)O)C(=O)N[C@@H](Cc1ccc(O)cc1)C(N)=O (some centres unmarked) [Compound 79] | 0.19 | 19.3 | 5.85 | 1.3 | Cat B |  |  |  |
| Cc1ccc(C[C@H](NC(=O)C2O[C@H]2C(=O)O)C(=O)N[C@@H](Cc2ccc(O)cc2)C(N)=O)cc1 (some centres unmarked) [Compound 76] | 6.8 | > 25 | > 25 | 0.2 | Cat Z |  |  |  |
| CC(C)C[C@H](NC(=O)C1OC1C(=O)O)C(=O)N[C@@H](Cc1ccc(O)cc1)C(N)=O (some centres unmarked) [Compound 60] | 0.4 | > 25 | > 25 | 0.1 | Cat B & Z |  |  |  |
| CC(C)C[C@H](NC(=O)[C@H]1OC1C(=O)NCc1ccccc1)C(=O)N[C@@H](Cc1ccc(O)cc1)C(N)=O (some centres unmarked) [Compound 21] |  |  |  |  | Cat B |  |  |  |
| CC(C)C[C@H](NC(=O)C1O[C@H]1C(=O)NCCN1CCCCC1)C(=O)N[C@@H](Cc1ccc(O)cc1)C(N)=O (some centres unmarked) [Compound 49] |  |  |  |  | Cat B |  |  |  |
| CC(C)C[C@H](NC(=O)C1OC1C(=O)NCCc1ccc(-c2ccccc2)cc1)C(=O)N[C@@H](Cc1ccc(O)cc1)C(N)=O (some centres unmarked) [Compound 24] |  |  |  |  | Cat B |  |  |  |
| CC(C)C[C@H](NC(=O)[C@H]1OC1C(=O)NCCc1ccc(O)cc1)C(=O)NCCN1CCCCC1 (some centres unmarked) [Compound 67] |  |  |  |  | Cat B |  |  |  |
| CC(C)C[C@H](NC(=O)[C@H]1OC1C(=O)O)C(=O)N[C@@H](Cc1ccc(O)cc1)C(N)=O (some centres unmarked) [Compound 40] | 0.02 | 0.2 | 5.45 | 0.1 | General |  |  |  |
